“And” between values parts separate entries of the source, which are not always exact repeats. Identical values can stand only once. Counter-ions that a name gives are not always drawn.
How the values were obtained:
KOR [1] = target: T1, KOR (Mus musculus, UniProt P33534); assay type: binding
DOR [2] = target: T2, DOR (Homo sapiens, UniProt P41143); test: biochemical; assay type: binding
MOR = MOR (Mus musculus, UniProt P42866); test: biochemical; assay type: biochemical; settings: for Emax: read-out: MOR [35S]GTPγS Binding % Emax of DAMGO
Chain of MOR (P42866 whole entry): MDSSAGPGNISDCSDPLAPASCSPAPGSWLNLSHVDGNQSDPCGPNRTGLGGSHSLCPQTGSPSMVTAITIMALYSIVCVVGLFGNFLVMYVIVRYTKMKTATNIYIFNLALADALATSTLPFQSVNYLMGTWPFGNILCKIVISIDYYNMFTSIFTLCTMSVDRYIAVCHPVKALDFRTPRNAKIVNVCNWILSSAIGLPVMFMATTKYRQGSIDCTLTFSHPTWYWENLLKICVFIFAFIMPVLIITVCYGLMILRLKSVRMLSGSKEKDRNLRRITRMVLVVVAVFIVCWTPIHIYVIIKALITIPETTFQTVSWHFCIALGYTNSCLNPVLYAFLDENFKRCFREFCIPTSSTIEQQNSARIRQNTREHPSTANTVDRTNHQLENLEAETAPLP

KOR [3] = target: T1, KOR; test: biochemical; settings: read-out: KOR [35S]GTPγS Binding % Emax of U50,488H
DOR [4] = target: T2, DOR; test: biochemical; settings: read-out: DOR [35S]GTPγS Binding % Emax of SNC80

T2 sequence (P41143 whole entry): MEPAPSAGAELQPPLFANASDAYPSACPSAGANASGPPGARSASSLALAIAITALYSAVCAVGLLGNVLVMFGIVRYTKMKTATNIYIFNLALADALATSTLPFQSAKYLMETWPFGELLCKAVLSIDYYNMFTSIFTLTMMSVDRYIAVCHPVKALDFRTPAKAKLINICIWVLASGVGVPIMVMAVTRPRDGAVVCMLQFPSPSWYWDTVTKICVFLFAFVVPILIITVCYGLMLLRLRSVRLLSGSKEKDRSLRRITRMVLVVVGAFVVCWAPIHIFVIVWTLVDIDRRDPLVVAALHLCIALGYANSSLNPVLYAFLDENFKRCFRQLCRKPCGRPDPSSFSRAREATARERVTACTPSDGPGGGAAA
T1 sequence (P33534 whole entry): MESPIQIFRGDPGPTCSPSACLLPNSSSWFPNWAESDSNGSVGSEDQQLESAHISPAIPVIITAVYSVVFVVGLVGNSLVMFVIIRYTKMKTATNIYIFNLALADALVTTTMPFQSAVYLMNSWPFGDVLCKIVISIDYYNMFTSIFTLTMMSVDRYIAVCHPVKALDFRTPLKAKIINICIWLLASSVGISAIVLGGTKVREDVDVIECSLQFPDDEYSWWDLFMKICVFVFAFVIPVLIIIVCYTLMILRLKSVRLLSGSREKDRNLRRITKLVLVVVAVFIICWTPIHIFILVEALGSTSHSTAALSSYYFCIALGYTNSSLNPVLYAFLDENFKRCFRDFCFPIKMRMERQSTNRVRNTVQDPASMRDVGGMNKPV

SMILES | Selectivity κ/μ (KOR [1]) | Selectivity δ/μ (DOR [2]) | MOR [35S]GTPγS Binding % Emax of DAMGO (MOR) | Emax (MOR) | Emax (KOR [3]) | Emax (DOR [4]) | Ki (DOR [2])
Cl.O=C(Cc1ccoc1)N[C@H]1CC[C@@]2(O)[C@H]3Cc4ccc(O)c5c4[C@@]2(CCN3CC2CC2)[C@H]1O5 [Compound 21, 17-Cyclopropylmetyl-3, 14β-dihydroxy-4,5α-epoxy-6α-[(3′-furanyl)acetamido]morphinan Hydrochloride] | 15 | 9 | 14.95 ± 1.46% |  |  |  | 
Cl.O=C(N[C@H]1CC[C@@]2(O)[C@H]3Cc4ccc(O)c5c4[C@@]2(CCN3CC2CC2)[C@H]1O5)c1ccoc1 [Compound 19, 17-Cyclopropylmethyl-3, 14β-dihydroxy-4,5α-epoxy-6α-[(3′-furanyl)carboxamido]morphinan Hydrochloride] |  |  | 18.14 ± 2.95% |  |  |  | 
Cl.O=C(N[C@@H]1CC[C@@]2(O)[C@H]3Cc4ccc(O)c5c4[C@@]2(CCN3CC2CC2)[C@H]1O5)c1ccco1 [Compound 14, 17-Cyclopropylmethyl-3,14β-dihydroxy-4,5α-epoxy-6β-[(2′furanyl)carboxamido]morphinan Hydrochloride] |  |  |  | 24.2 ± 0.9% | 67.2 ± 2.53% | 23.1 ± 0.97% | 
Cl.O=C(N[C@H]1CC[C@@]2(O)[C@H]3Cc4ccc(O)c5c4[C@@]2(CCN3CC2CC2)[C@H]1O5)c1ccco1 [Compound 13, 17-Cyclopropylmethyl-3,14β-dihydroxy-4,5α-epoxy-6α-[(2′furanyl)carboxamido]morphinan Hydrochloride] | 3.83 and 4 | 62.83 and 63 |  | 21.8 ± 5.19% |  |  | 
Cl.O=C(Cc1ccoc1)N[C@@H]1CC[C@@]2(O)[C@H]3Cc4ccc(O)c5c4[C@@]2(CCN3CC2CC2)[C@H]1O5 [Compound 22, 17-Cyclopropylmetyl-3,14β-dihydroxy-4,5α-epoxy-6β-[(3′-furanyl)acetamido]morphinan Hydrochloride] | 16.7 and 17 | 332 |  | 30.8 ± 2.07% |  |  | 
Cl.O=C(CCc1ccco1)N[C@@H]1CC[C@@]2(O)[C@H]3Cc4ccc(O)c5c4[C@@]2(CCN3CC2CC2)[C@H]1O5 [Compound 18, 17-Cyclopropylmethyl-3,14β-dihydroxy-4,5α-epoxy-6β-[(2′-furanyl)propanamido]morphinan Hydrochloride] | 2 | 118 |  |  |  |  | 
Cl.O=C(CCc1cc[nH]c1)N[C@@H]1CC[C@@]2(O)[C@H]3Cc4ccc(O)c5c4[C@@]2(CCN3CC2CC2)[C@H]1O5 [Compound 12] | 7 | 164 |  | 37.7 ± 0.87% |  |  | 
Cl.O=C(Cc1cc[nH]c1)N[C@H]1CC[C@@]2(O)[C@H]3Cc4ccc(O)c5c4[C@@]2(CCN3CC2CC2)[C@H]1O5 [Compound 9, 17-Cyclopropylmethyl-3, 14β-dihydroxy-4,5α-epoxy-6α-[(3′-pyrrolyl)acetamido]morphinan Hydrochloride] | 5 | 4 |  | 31.6 ± 2.87% |  |  | 
Cl.O=C(CCc1ccco1)N[C@H]1CC[C@@]2(O)[C@H]3Cc4ccc(O)c5c4[C@@]2(CCN3CC2CC2)[C@H]1O5 [Compound 17, 17-Cyclopropylmethyl-3, 14β-dihydroxy-4,5α-epoxy-6α-[(2′-furanyl)propanamido]morphinan Hydrochloride] |  | 4 |  |  |  |  | 
O=C(Cc1cccs1)N[C@H]1CC[C@@]2(O)[C@H]3Cc4ccc(O)c5c4[C@@]2(CCN3CC2CC2)[C@H]1O5 [Compound 27, 17-Cyclopropylmethyl-3,14β-dihydroxy-4,5α-epoxy-6α-(2′-thienylacetamido)morphinan Hydrochloride] |  |  |  |  |  |  | 6.92 ± 1.63 nM
Cl.O=C(CCc1ccc[nH]1)N[C@@H]1CC[C@@]2(O)[C@H]3Cc4ccc(O)c5c4[C@@]2(CCN3CC2CC2)[C@H]1O5 [Compound 6, 17-Cyclopropylmethyl-3,14β-dihydroxy-4,5α-epoxy-6β-[3′-(2′-pyrrolyl)propanamido]morphinan Hydrochloride] | 2 | 70 |  | 39.3 ± 3.16% |  |  | 
Cl.O=C(Cc1cc[nH]c1)N[C@@H]1CC[C@@]2(O)[C@H]3Cc4ccc(O)c5c4[C@@]2(CCN3CC2CC2)[C@H]1O5 [Compound 10, 17-Cyclopropylmethyl-3,14β-dihydroxy-4,5α-epoxy-6β-[(3′-pyrrolyl)acetamido]morphinan Hydrochloride] |  |  |  | 53.3 ± 0.95% |  |  | 
Cl.O=C(N[C@H]1CC[C@@]2(O)[C@H]3Cc4ccc(O)c5c4[C@@]2(CCN3CC2CC2)[C@H]1O5)c1cc[nH]c1 [Compound 7, 17-Cyclopropylmethyl-3,14β-dihydroxy-4,5α-epoxy-6α-[(3′-pyrrolyl)carboxamido]morphinan Hydrochloride] | 2 | 31 | 16.65 ± 1.25% |  |  |  | 
Cl.O=C(CCc1ccc[nH]1)N[C@H]1CC[C@@]2(O)[C@H]3Cc4ccc(O)c5c4[C@@]2(CCN3CC2CC2)[C@H]1O5 [Compound 5, 17-Cyclopropylmethyl-3,14β-dihydroxy-4,5α-epoxy-6α[3′-(2′-pyrrolyl)propanamido]morphinan Hydrochloride] |  |  |  | 24 ± 3.59% |  |  | 
Cl.O=C(Cc1ccc[nH]1)N[C@@H]1CC[C@@]2(O)[C@H]3Cc4ccc(O)c5c4[C@@]2(CCN3CC2CC2)[C@H]1O5 [Compound 4, 17-Cyclopropylmethyl-3,14β-dihydroxy-4,5α-epoxy-6β-[2′-(2′-pyrrolyl)acetamido]morphinan Hydrochloride] | 8 | 152 |  | 44.2 ± 1.52% |  |  | 
Cl.O=C(N[C@H]1CC[C@@]2(O)[C@H]3Cc4ccc(O)c5c4[C@@]2(CCN3CC2CC2)[C@H]1O5)c1ccc[nH]1 [Compound 1, 17-Cyclopropylmethyl-3,14β-dihydroxy-4,5α-epoxy-6a-[(2′-pyrrolyl)carboxamido]morphinan Hydrochloride] |  |  | 12.11 ± 2.64% |  | 43.4 ± 1.36% | 50.9 ± 5.25% | 
Cl.O=C(Cc1ccco1)N[C@H]1CC[C@@]2(O)[C@H]3Cc4ccc(O)c5c4[C@@]2(CCN3CC2CC2)[C@H]1O5 [Compound 15, 17-Cyclopropylmethyl-3, 14β-dihydroxy-4,5α-epoxy-6α-[(2′-furanyl)acetamido]morphinan Hydrochloride] |  |  |  | 22.6 ± 2.77% | 63.3 ± 2.5% | 66.8 ± 4.24% | 
Cl.O=C(Cc1ccc[nH]1)N[C@H]1CC[C@@]2(O)[C@H]3Cc4ccc(O)c5c4[C@@]2(CCN3CC2CC2)[C@H]1O5 [Compound 3, 17-Cyclopropylmethyl-3,14β-dihydroxy-4,5α-epoxy-6a-[2′-(2′-pyrrolyl)acetamido]morphinan Hydrochloride] | 6 | 8 |  | 25 ± 2.61% |  |  | 
Cl.O=C(Cc1ccco1)N[C@@H]1CC[C@@]2(O)[C@H]3Cc4ccc(O)c5c4[C@@]2(CCN3CC2CC2)[C@H]1O5 [Compound 16, 17-Cyclopropylmethyl-3,14β-dihydroxy-4,5α-epoxy-6β-[(2′-furanyl)acetamido]morphinan Hydrochloride] |  |  |  | 40 ± 0.9% | 49.3 ± 1.07% | 31.2 ± 1.49% | 
Cl.O=C(N[C@@H]1CC[C@@]2(O)[C@H]3Cc4ccc(O)c5c4[C@@]2(CCN3CC2CC2)[C@H]1O5)c1ccoc1 [Compound 20, 17-Cyclopropylmethyl-3,14β-dihydroxy-4,5α-epoxy-6β-[(3′-furanyl)carboxamido]morphinan Hydrochloride] | 3 | 234 |  | 25 ± 1.74% |  |  | 

Source: PMC10149103 (Journal of medicinal chemistry, 2022)
